Reference: US4906753A, “Preparation of 2,6-disubstituted-5-cyano-4-pyrimidinyloxyacetic acid aldose reductase inhibitors” (American Home Products Corporation, priority 1988, dated 1990)
Like-named read-outs stand apart in the source and are kept apart here.

How the values were obtained:
aldose reductase [1] = target: T1, aldose reductase (Bos taurus, UniProt P16116); test: in vitro aldose reductase inhibition (modified Hayman and Kinoshita procedure); type: biochemical, bovine (lens); conditions: for inhibition at 10 µM: read-out: % Inhibition IN VITRO 10^-5 M; for inhibition at 1 µM: 10^-6 M; for inhibition at 0.1 µM: 10^-7 M
T1 construct: preparation of the enzyme from bovine lens; from tissue; host or cells: bovine lens
Text: In the present case the procedure of Hayman and Kinoshita was modified in that the final chromatography step was omitted in the preparation of the enzyme from bovine lens.

galactosemic rats = test: lowering of dulcitol (galactitol) accumulation in tissues of galactosemic rats; type: in vivo, rat (male Sprague-Dawley); conditions: for % Lowering dulcitol accumulation IN VIVO, D: Table 1, diaphragm
Description: Such experiments are exemplified hereinbelow after the listing of the following general comments pertaining to these experiments:
Male Sprague-Dawley rats, weighing approximately 90 grams were separated into groups of equal average body weight, with six animals per group. The animals were housed in cages of six animals each and maintained on 12 hour night/12 hour day cycles. Except as otherwise noted, the animals were given food and water ad libitum.
On day 1, the galactosemic control group and all drug-treated groups were given access to 20% galactose chow (Bio-Serv, Frenchtown, NJ). Animals in the control group were given access to 20% glucose chow (Bio-Serv). Test compounds were administered either in the diet or by gavage as a suspension in 2% Tween 80 in saline. In experiments, in which gavage dosing was used, the animals were administered the test compound daily at approximately the same hour each day. Food intake and body weight were determined twice during the course of the experiment. In cases in which the compound was administered in the diet, the average dose was calculated on the basis of the actual average food intake during the experiment.
On the morning of day 5, all animals were fasted; beginning two hours later the animals were decapitated and the lenses, sciatic nerves, and a 50-100 mg portion of the diaphragm were removed, weighed, and frozen in porcelain plates on dry ice.
Only two minor reagent changes were made: (a) the rinsing mixture was an aqueous 5% (w/v) trichloroacetic acid solution and (b) the stock solution was prepared by dissolving 25 mg of dulcitol in 100 mL of an aqueous trichloroacetic acid solution. [N.B.: For each experiment the average value found in the tissue from rats fed the glucose diet was subtracted from the individual values found in the corresponding tissue in galactose-fed rats to obtain the amount of polyol accumulated.]
The figures under L, N and D represent the percentage decrease of galactitol accumulation in the tissues of the lens, sciatic nerve, and diaphragm, respectively, for treated rats as compared to untreated rats.

aldose reductase [2] = conditions: reported in U.S. Pat. No. 4,568,693; cited from earlier work

Compound | inhibition at 10 µM (aldose reductase [1]; Table 1, 10^-5 M) [%] | inhibition at 1 µM (aldose reductase [1]; Table 1) [%] | inhibition at 0.1 µM (aldose reductase [1]; Table 1) [%] | other results
CSc1nc(-c2cccs2)nc(OCC(=O)O)c1C#N [Example 17 (Table 1)] | – | 97 | 92 | inhibition at 10 µM (aldose reductase [1]): 98%
N#Cc1c(Cc2cccc3ccccc23)nc(-c2cccc3c(Br)cccc23)nc1OCC(=O)O [Example 1 (Table 2), [[2-(5-Bromo-1-naphthalenyl)-5-cyano-6-[(1-naphthalenyl)methyl]-4-pyrimidinyl]oxy]acetic Acid] | – | – | – | inhibition at 10 µM (aldose reductase [1]; Table 2, 10^-5 M): 90%; inhibition at 1 µM (aldose reductase [1]; Table 2): 85%; inhibition at 0.1 µM (aldose reductase [1]; Table 2): 46%
Cc1nc(-c2ccccc2)nc(OCC(=O)O)c1C#N | – | – | – | inhibition at 10 µM (aldose reductase [1]; Table 2, 10^-5 M): 92%; inhibition at 1 µM (aldose reductase [1]; Table 2): 88%; inhibition at 0.1 µM (aldose reductase [1]; Table 2): 79%
N#Cc1c(OCC(=O)O)nc(-c2cccc3ccccc23)nc1-c1ccccc1 [Example 5 (Table 2)] | – | – | – | inhibition at 10 µM (aldose reductase [1]; Table 2, 10^-5 M): 79%; inhibition at 1 µM (aldose reductase [1]; Table 2): 76%; inhibition at 0.1 µM (aldose reductase [1]; Table 2): 53%
CCCc1nc(OCC(=O)O)c(C#N)c(SC)n1 [Example 7 (Table 1)] | 92 | 89 | 74 | –
CSc1nc(Cc2ccccc2)nc(OCC(=O)O)c1C#N | 91 | 90 | 78 | –
CCCCCCSc1nc(C(C)(C)C)nc(OCC(=O)O)c1C#N [Example 11 (Table 1)] | – | – | – | % Lowering dulcitol accumulation IN VIVO, D (galactosemic rats; 112 mg/kg): 60%
Cc1nc(-c2cccc3ccccc23)nc(OCC(=O)O)c1C#N [Example 3 (Table 2)] | – | – | – | inhibition at 10 µM (aldose reductase [1]; Table 2, 10^-5 M): 93%; inhibition at 1 µM (aldose reductase [1]; Table 2): 85%; inhibition at 0.1 µM (aldose reductase [1]; Table 2): 46%
CC(C)(C)c1nc(OCC(=O)O)c(C#N)c(SCC2CCCCC2)n1 [Example 1 (Table 1), [[5-Cyano-6-[(cyclohexylmethyl)thio]-2-(1,1-dimethylethyl)-4-pyrimidinyl]oxy]acetic Acid] | 97 | 96 | 88 | –
N#Cc1c(OCC(=O)O)nc(-c2ccccc2)nc1-c1ccccc1 [Example 4 (Table 2)] | – | – | – | inhibition at 0.1 µM (aldose reductase [1]; Table 2): 85%; % Lowering dulcitol accumulation IN VIVO, L (galactosemic rats; Table 2, lens, 100 mg/kg): 17%
CC(C)c1nc(-c2cccc3c(Br)cccc23)nc(OCC(=O)O)c1C#N [Example 6 (Table 2)] | – | – | – | inhibition at 10 µM (aldose reductase [1]; Table 2, 10^-5 M): 94%; inhibition at 1 µM (aldose reductase [1]; Table 2): 90%; inhibition at 0.1 µM (aldose reductase [1]; Table 2): 53%
COc1ccc2c(C(=S)N(C)CC(=O)O)cccc2c1C(F)(F)F [tolrestat, N-[[6-methoxy-5-(trifluoromethyl)-1-naphthalenyl]-thioxomethyl]-N-methylglycine, reference compound] | – | – | – | inhibitor of aldose reductase (aldose reductase [2]): effective inhibitor of aldose reductase
CSc1nc(CC(C)(C)C)nc(OCC(=O)O)c1C#N [Example 4 (Table 1)] | 95 | 96 | 85 | % Lowering dulcitol accumulation IN VIVO, D (galactosemic rats; 98 mg/kg): 22%
CSc1nc(C(C)(C)C)nc(OCC(=O)O)c1C#N [Example 3 (Table 1)] | 89 | 88 | 82 | % Lowering dulcitol accumulation IN VIVO, D (galactosemic rats; 83 mg/kg): 32%
CC(C)(C)c1nc(OCC(=O)O)c(C#N)c(SCc2ccc(Br)cc2F)n1 [Example 2 (Table 1)] | – | 93 | 93 | inhibition at 10 µM (aldose reductase [1]): 98%; % Lowering dulcitol accumulation IN VIVO, D (galactosemic rats; 99 mg/kg): 47%
CSc1nc(C(C)C)nc(OCC(=O)O)c1C#N [Example 5 (Table 1)] | – | 97 | 88 | inhibition at 10 µM (aldose reductase [1]): 98%

Now from value to molecule, other results behind:

inhibition at 10 µM (aldose reductase [1]; Table 1, 10^-5 M) [%] | inhibition at 1 µM (aldose reductase [1]; Table 1) [%] | inhibition at 0.1 µM (aldose reductase [1]; Table 1) [%] | Compound | other results
90 | 84 | 55 | CSc1nc(C)nc(OCC(=O)O)c1C#N [Example 13 (Table 1)] | –
86 | 85 | 82 | CC(C)(C)c1nc(OCC(=O)O)c(C#N)c(SCc2ccccc2)n1 [Example 16 (Table 1)] | % Lowering dulcitol accumulation IN VIVO, D (galactosemic rats; 97 mg/kg): 67%
95 | 91 | 73 | N#Cc1c(OCC(=O)O)nc(C2CCCCC2)nc1SCc1ccccc1 [Example 8 (Table 1)] | –
90 | 90 | 74 | CSc1nc(C2CCCCC2)nc(OCC(=O)O)c1C#N [Example 15 (Table 1)] | –
92 | 87 | 75 | CSc1nc(-c2ccccc2)nc(OCC(=O)O)c1C#N [Example 14 (Table 1)] | % Lowering dulcitol accumulation IN VIVO, D (galactosemic rats; 96 mg/kg): 55%
95 | 95 | 95 | CC(C)(C)c1nc(OCC(=O)O)c(C#N)c(SCc2ccc(Br)cc2)n1 [Example 10 (Table 1)] | % Lowering dulcitol accumulation IN VIVO, D (galactosemic rats; 135 mg/kg): 58%
92 | 91 | 89 | CC(C)Sc1nc(C(C)(C)C)nc(OCC(=O)O)c1C#N [Example 12 (Table 1)] | % Lowering dulcitol accumulation IN VIVO, D (galactosemic rats; 82 mg/kg): 19%
95 | 93 | 82 | CSc1nc(-c2ccc(Br)cc2)nc(OCC(=O)O)c1C#N [Example 9 (Table 1)] | % Lowering dulcitol accumulation IN VIVO, D (galactosemic rats; 114 mg/kg): 27%
